Columns and labels:
[1] = test system: HHV-6 variant B HST strain; test: Expression of SITH-1 in HHV-6-infected U373 cells in the presence of ganciclovir (real-time PCR); type: cell-based, human herpesvirus 6; conditions: U373 glial cell line infected with HHV-6, one day after infection, relative to ganciclovir (-)
Description: The human glial cell line (U373) was infected with HHV-6 in the presence of ganciclovir, and the amount of SITH-1 expressed in the infected cell line was measured by the real-time PCR technique.
The U373 cells were cultured overnight in the presence of ganciclovir at various concentrations (FIG. 14) and infected with an HHV-6 variant B HST strain, and the amount of SITH-1 that was expressed in cells one day after the infection was measured by the real-time PCR technique.
Since the effective concentration of ganciclovir against HHV-6 variant B is considered to be about 10 μM in terms of IC50, three concentrations were obtained by 3-fold dilutions, with 10 μM in the middle.
The vertical axis of the graph in FIG. 14 plots the relative amount of expression of SITH-1 mRNA, with the value for ganciclovir (-) being taken as unity. […] When ganciclovir was used in the amounts of […], 10 μM and 30 μM, the amount of expression of SITH-1 mRNA was suppressed by about 20%, 40% and more than 80%, respectively.

CAML = test: Expression of CAML in HHV-6-infected U373 cells in the presence of ganciclovir (indirect fluorescent antibody technique); type: cell-based, human; conditions: U373 cell line infected with HHV-6, ganciclovir added after infection
Description: The human glial cell line (U373) is infected with HHV-6, and then ganciclovir is added. The amount of CAML expressed in the infected cell line in the presence of ganciclovir is measure by the indirect fluorescent antibody technique.

HHV-6 variant B = conditions: "is considered to be", read-out: effective concentration against HHV-6 variant B in terms of IC50; cited from earlier work
[2] = test system: HHV-6 or Epstein-Barr virus (EBV); conditions: patients with encephalitis/encephalopathy-like and long-standing fatigue symptoms, presumably due to HHV-6 or EBV infection; cited from earlier work

Nc1nc(O)c2ncn(COC(CO)CO)c2n1 [ganciclovir]
amount of expression of SITH-1 mRNA suppressed ([1]; ganciclovir 3 μM): about 20% | amount of expression of SITH-1 mRNA suppressed ([1]; ganciclovir 10 μM): ~40% | amount of expression of SITH-1 mRNA suppressed ([1]; ganciclovir 30 μM): more than 80% | amount of CAML expression (CAML): suppressed by ganciclovir in a dose-dependent manner | IC50 (HHV-6 variant B): ~10 µM

CC(C)[C@H](N)C(=O)OCC(CO)OCn1cnc2c(=O)nc(N)[nH]c21 (stereo partly drawn) [valganciclovir]
patients who had their symptoms improved [2]: 75%
